The structures appear in SMILES notation.

This series has as its system COS-1 cells. Put plainly: In vitro mammalian cytotoxicity assay (Resazurin). For orientation: The colour change of resazurin is a common sign of viable cells or microbes.
Consider `COCC#Cc1ccc(O)c2c1C[C@@]1(N)C[C@@]3(N)[C@H](N(C)C)C(O)=C(C(N)=O)C(=O)[C@@]3(C#N)C(O)=C1C2=O` [HI], for which the “In Vitro Cytotoxicity” value is given as “* (toxicities greater than >25 μg/ml are represented by *)”. On to `CN(C)[C@@H]1C(O)=C(C(N)=O)C(=O)[C@@]2(C#N)C(O)=C3C(=O)c4c(O)c(C(=O)NCC5CCCO5)cc(-c5ccc(F)cc5)c4C[C@@]3(N)C[C@@]12N` (stereo partly drawn) [KZ], for which the “In Vitro Cytotoxicity” value is given as “* (toxicities greater than >25 μg/ml are represented by *)”. Consider `CCNC(=O)NCc1cc(N(C)C)c2c(c1O)C(=O)C1=C(O)[C@]3(C#N)C(=O)C(C(N)=O)=C(O)[C@@H](N(C)C)[C@]3(N)C[C@]1(N)C2` [MH], for which the “In Vitro Cytotoxicity” value is recorded as “* (toxicities greater than >25 μg/ml are represented by *)”. Under `CN(C)[C@@H]1C(O)=C(C(N)=O)C(=O)[C@@]2(C#N)C(O)=C3C(=O)c4c(ccc(C(C)(C)CCC[N+](=O)[O-])c4O)[C@H](N)[C@@]3(N)[C@H](O)[C@@]12N` [BF] stands “** (toxicities less than 25 μg/mL are represented by **)”; under `CN(C)[C@@H]1C(O)=C(C(N)=O)C(=O)[C@@]2(C#N)C(O)=C3C(=O)c4c(ccc(NC(=O)Nc5cccc6ccccc56)c4O)[C@H](N)[C@@]3(N)[C@H](OC(=O)Nc3ccccc3)[C@@]12N` [BJ], “** (toxicities less than 25 μg/mL are represented by **)”. Turning to `COc1ccc(-c2ccc3c(c2O)C(=O)C2=C(O)[C@]4(C#N)C(=O)C(C(N)=O)=C(O)[C@@H](N(C)C)[C@]4(N)[C@@H](O)[C@]2(N)C3N)cc1` (stereo partly drawn) [AZ], the “In Vitro Cytotoxicity” value is reported as “** (toxicities less than 25 μg/mL are represented by **)”. Under `CCC(CC)CCc1ccc(O)c2c1C[C@@]1(N)C[C@@]3(N)C(N(C)C)C(O)=C(C(N)=O)C(=O)[C@@]3(C#N)C(O)=C1C2=O` (stereo partly drawn) [QX] stands “** (toxicities less than 25 μg/mL are represented by **)”. Consider `Cc1csc(-c2ccc(O)c3c2C[C@@]2(N)C[C@@]4(N)[C@H](N(C)C)C(O)=C(C(N)=O)C(=O)[C@@]4(C#N)C(O)=C2C3=O)c1` [GN], for which the “In Vitro Cytotoxicity” value is given as “** (toxicities less than 25 μg/mL are represented by **)”.

`CN(C)[C@@H]1C(O)=C(C(N)=O)C(=O)[C@@]2(C#N)C(O)=C3C(=O)c4c(ccc(Nc5nc(C6C7CC8CC(C7)CC6C8)cs5)c4O)[C@H](O)[C@@]3(N)[C@H](O)[C@@]12N` (stereo partly drawn) [DX]: the “In Vitro Cytotoxicity” value is recorded as “** (toxicities less than 25 μg/mL are represented by **)”.

Consider `CCCCN(c1ccc2c(c1O)C(=O)C1=C(O)[C@]3(C#N)C(=O)C(C(N)=O)=C(O)[C@@H](N(C)C)[C@]3(N)[C@@H](O)[C@]1(N)[C@H]2N)C1CCN(C)CC1` [RX], for which the “In Vitro Cytotoxicity” value was “* (toxicities greater than >25 μg/ml are represented by *)”. For `CN(C)[C@@H]1C(O)=C(C(N)=O)C(=O)[C@@]2(C#N)C(O)=C3C(=O)c4c(ccc(CNC(=O)c5ccccc5)c4O)C[C@@]3(N)C[C@@]12N` [RW], the “In Vitro Cytotoxicity” value is listed as “* (toxicities greater than >25 μg/ml are represented by *)”.

With `CN(C)[C@@H]1C(O)=C(C(N)=O)C(=O)[C@@]2(C#N)C(O)=C3C(=O)c4c(ccc(Nc5nc(-c6ccc(F)cc6)cs5)c4O)C[C@@]3(N)C[C@@]12N` [EB], the “In Vitro Cytotoxicity” value is listed as “* (toxicities greater than >25 μg/ml are represented by *)”. Consider `CC(=O)c1ccc(O)c2c1[C@H](N)[C@]1(N)C(=C(O)[C@]3(C#N)C(=O)C(C(N)=O)=C(O)[C@@H](N(C)C)[C@]3(N)[C@H]1O)C2=O` [CR], for which the “In Vitro Cytotoxicity” value was “** (toxicities less than 25 μg/mL are represented by **)”. `CN(C)[C@@H]1C(O)=C(C(N)=O)C(=O)[C@@]2(C#N)C(O)=C3C(=O)c4c(O)ccc(-c5ccc(NC(=O)Nc6ccc(OC(F)(F)F)cc6)cc5)c4C[C@@]3(N)C[C@@]12N` [PH]: the “In Vitro Cytotoxicity” value is reported as “* (toxicities greater than >25 μg/ml are represented by *)”. `CN(C)[C@@H]1C(O)=C(C(N)=O)C(=O)[C@@]2(C#N)C(O)=C3C(=O)c4c(O)ccc(/C=C(\Cl)C5=CCCCC5)c4C[C@@]3(N)C[C@@]12N` [GG]: the “In Vitro Cytotoxicity” value is listed as “** (toxicities less than 25 μg/mL are represented by **)”. Take `CN(C)[C@@H]1C(O)=C(C(N)=O)C(=O)[C@@]2(C#N)C(O)=C3C(=O)c4c(O)ccc(-c5ccco5)c4C[C@@]3(N)C[C@@]12N` [GO]: the “In Vitro Cytotoxicity” value was “** (toxicities less than 25 μg/mL are represented by **)”. Next, `CN(C)[C@@H]1C(O)=C(C(N)=O)C(=O)[C@@]2(C#N)C(O)=C3C(=O)c4c(ccc(NC(=O)OCCBr)c4O)[C@H](N)[C@@]3(N)[C@H](O)[C@@]12N` [DD]: “** (toxicities less than 25 μg/mL are represented by **)”; `CN(C)c1cc(NCC2=CC=C(C(C)(C)C)CC2)c(O)c2c1C[C@@]1(N)C[C@@]3(N)[C@H](N(C)C)C(O)=C(C(N)=O)C(=O)[C@@]3(C#N)C(O)=C1C2=O` [TX]: “** (toxicities less than 25 μg/mL are represented by **)”; `CN(C)[C@@H]1C(O)=C(C(N)=O)C(=O)[C@@]2(C#N)C(O)=C3C(=O)c4c(O)ccc(-c5ccc(CNCc6ccccc6)o5)c4C[C@@]3(N)C[C@@]12N` [SS]: “** (toxicities less than 25 μg/mL are represented by **)”. On to `CN(C)[C@@H]1C(O)=C(C(N)=O)C(=O)[C@@]2(C#N)C(O)=C3C(=O)c4c(O)cccc4[C@H](OSC(F)(F)C(F)(F)F)[C@@]3(N)[C@H](O)[C@@]12N` [AS], for which the “In Vitro Cytotoxicity” value is “** (toxicities less than 25 μg/mL are represented by **)”. As to `CN(C)[C@@H]1C(O)=C(C(N)=O)C(=O)[C@@]2(C#N)C(O)=C3C(=O)c4c(O)c(NC(=O)OCC(C)(C)C)cc(CN)c4C[C@@]3(N)C[C@@]12N` [QM], the “In Vitro Cytotoxicity” value was “* (toxicities greater than >25 μg/ml are represented by *)”. Next, `COc1ccc(-c2ccc(O)c3c2C[C@@]2(N)C[C@@]4(N)[C@H](N(C)C)C(O)=C(C(N)=O)C(=O)[C@@]4(C#N)C(O)=C2C3=O)c(OC)c1` [OM]: “** (toxicities less than 25 μg/mL are represented by **)”; `CN(C)[C@@H]1C(O)=C(C(N)=O)C(=O)[C@@]2(C#N)C(O)=C3C(=O)c4c(O)ccc(C#Cc5ccccc5)c4C[C@@]3(N)C[C@@]12N` [FX]: “** (toxicities less than 25 μg/mL are represented by **)”; `CCc1cc(CNCC(C)C)c(O)c2c1C[C@@]1(N)C[C@@]3(N)[C@H](N(C)C)C(O)=C(C(N)=O)C(=O)[C@@]3(C#N)C(O)=C1C2=O` [RK]: “* (toxicities greater than >25 μg/ml are represented by *)”.

Regarding `CN(C)[C@@H]1C(O)=C(C(N)=O)C(=O)[C@@]2(C#N)C(O)=C3C(=O)c4c(O)ccc(C#Cc5cccc(C#N)c5)c4C[C@@]3(N)C[C@@]12N` [GQ], the “In Vitro Cytotoxicity” value is recorded as “* (toxicities greater than >25 μg/ml are represented by *)”. Turning to `CCc1ccnc(-c2ccc(O)c3c2C[C@@]2(N)C[C@@]4(N)[C@H](N(C)C)C(O)=C(C(N)=O)C(=O)[C@@]4(C#N)C(O)=C2C3=O)c1` [VB], the “In Vitro Cytotoxicity” value is “** (toxicities less than 25 μg/mL are represented by **)”. Consider `CN(C)[C@@H]1C(O)=C(C(N)=O)C(=O)[C@@]2(C#N)C(O)=C3C(=O)c4c(O)ccc(-c5cccc(CN6CCCC6)c5)c4C[C@@]3(N)C[C@@]12N` [HL], for which the “In Vitro Cytotoxicity” value is “* (toxicities greater than >25 μg/ml are represented by *)”. Next, `CC(C)CNC(=N)Nc1cc(N(C)C)c2c(c1O)C(=O)C1=C(O)[C@]3(C#N)C(=O)C(C(N)=O)=C(O)[C@@H](N(C)C)[C@]3(N)C[C@]1(N)C2` [MM]: “* (toxicities greater than >25 μg/ml are represented by *)”; `CN(C)[C@@H]1C(O)=C(C(N)=O)C(=O)[C@@]2(C#N)C(O)=C3C(=O)c4c(ccc(-c5ccco5)c4O)[C@H](O)[C@@]3(N)[C@H](O)[C@@]12N` [DY]: “** (toxicities less than 25 μg/mL are represented by **)”. As for `COc1ccc(CNC2CCCCC2)cc1-c1ccc(O)c2c1C[C@@]1(N)C[C@@]3(N)[C@H](N(C)C)C(O)=C(C(N)=O)C(=O)[C@@]3(C#N)C(O)=C1C2=O` [LQ], the “In Vitro Cytotoxicity” value is “* (toxicities greater than >25 μg/ml are represented by *)”.

`CCNC(=O)Nc1cc(N(C)C)c2c(c1O)C(=O)C1=C(O)[C@]3(C#N)C(=O)C(C(N)=O)=C(O)[C@@H](N(C)C)[C@]3(N)C[C@]1(N)C2` [KJ]: the “In Vitro Cytotoxicity” value was “** (toxicities less than 25 μg/mL are represented by **)”. Under `CN(C)c1cc(NCc2ccccc2)c(O)c2c1C[C@@]1(N)C[C@@]3(N)[C@H](N(C)C)C(O)=C(C(N)=O)C(=O)[C@@]3(C#N)C(O)=C1C2=O` [LO] stands “** (toxicities less than 25 μg/mL are represented by **)”. Under `COc1cccc(C/C=C\c2ccc(O)c3c2C[C@@]2(N)C[C@@]4(N)[C@H](N(C)C)C(O)=C(C(N)=O)C(=O)[C@@]4(C#N)C(O)=C2C3=O)c1OC` [HV] stands “** (toxicities less than 25 μg/mL are represented by **)”; under `CN(C)[C@@H]1C(O)=C(C(N)=O)C(=O)[C@@]2(C#N)C(O)=C3C(=O)c4c(O)ccc(C#CCc5ccccc5)c4C[C@@]3(N)C[C@@]12N` [GZ], “** (toxicities less than 25 μg/mL are represented by **)”; under `CCCCCC(=O)c1ccc(O)c2c1C[C@@]1(N)C[C@@]3(N)[C@H](N(C)C)C(O)=C(C(N)=O)C(=O)[C@@]3(C#N)C(O)=C1C2=O` [TT], “** (toxicities less than 25 μg/mL are represented by **)”. On to `CCN(CC)c1ccc(-c2csc(Nc3ccc4c(c3O)C(=O)C3=C(O)[C@]5(C#N)C(=O)C(C(N)=O)=C(O)[C@@H](N(C)C)[C@]5(N)[C@@H](O)[C@]3(N)[C@H]4O)n2)cc1` [DU], for which the “In Vitro Cytotoxicity” value was “** (toxicities less than 25 μg/mL are represented by **)”.

In the case of `CN(C)[C@@H]1C(O)=C(C(N)=O)C(=O)[C@@]2(C#N)C(O)=C3C(=O)c4c(O)ccc(-c5ccc(CNC6CCCCC6)o5)c4C[C@@]3(N)C[C@@]12N` [SR], the “In Vitro Cytotoxicity” value is on record as “** (toxicities less than 25 μg/mL are represented by **)”.

On to `COC(=O)c1cc(NC(=O)c2ccno2)cc(-c2ccc(O)c3c2C[C@@]2(N)C[C@@]4(N)C(N(C)C)C(O)=C(C(N)=O)C(=O)[C@@]4(C#N)C(O)=C2C3=O)c1` (stereo partly drawn) [RG], for which the “In Vitro Cytotoxicity” value is “* (toxicities greater than >25 μg/ml are represented by *)”. As to `Cc1ccc(C#Cc2cc(N(C)C)c3c(c2O)C(=O)C2=C(O)[C@]4(C#N)C(=O)C(C(N)=O)=C(O)[C@@H](N(C)C)[C@]4(N)C[C@]2(N)C3)cc1` [FL], the “In Vitro Cytotoxicity” value is reported as “** (toxicities less than 25 μg/mL are represented by **)”.

The values above are taken from patent US20050070510A1, “Substituted tetracycline compounds as synergistic antifungal agents” (Paratek Pharmaceuticals, Inc., priority 2001, published 2005).
